Test results from BindingDB's records for doi:10.1074/jbc.M111.292243 (University of Copenhagen, 2012).
pKi: −log10 of the molar value.

Columns and labels:
Test in all cases: Radioligand Competition Assay
[1] = target: Neuronal acetylcholine receptor subunit alpha-4 (Rattus norvegicus, UniProt P09483)
[2] = target: Neuronal acetylcholine receptor subunit alpha-7 (Rattus norvegicus, UniProt Q05941)
[3] = target: Acetylcholine-binding protein (Lymnaea stagnalis, UniProt P58154)
Chain of Acetylcholine-binding protein (P58154 whole entry): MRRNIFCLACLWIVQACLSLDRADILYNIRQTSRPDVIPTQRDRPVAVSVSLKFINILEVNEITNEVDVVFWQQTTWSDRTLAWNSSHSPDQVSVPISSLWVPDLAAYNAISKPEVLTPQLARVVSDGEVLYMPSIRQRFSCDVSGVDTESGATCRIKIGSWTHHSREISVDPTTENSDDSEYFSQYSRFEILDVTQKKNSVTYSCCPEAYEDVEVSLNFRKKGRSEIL

Chain of Neuronal acetylcholine receptor subunit alpha-4 (P09483 whole entry): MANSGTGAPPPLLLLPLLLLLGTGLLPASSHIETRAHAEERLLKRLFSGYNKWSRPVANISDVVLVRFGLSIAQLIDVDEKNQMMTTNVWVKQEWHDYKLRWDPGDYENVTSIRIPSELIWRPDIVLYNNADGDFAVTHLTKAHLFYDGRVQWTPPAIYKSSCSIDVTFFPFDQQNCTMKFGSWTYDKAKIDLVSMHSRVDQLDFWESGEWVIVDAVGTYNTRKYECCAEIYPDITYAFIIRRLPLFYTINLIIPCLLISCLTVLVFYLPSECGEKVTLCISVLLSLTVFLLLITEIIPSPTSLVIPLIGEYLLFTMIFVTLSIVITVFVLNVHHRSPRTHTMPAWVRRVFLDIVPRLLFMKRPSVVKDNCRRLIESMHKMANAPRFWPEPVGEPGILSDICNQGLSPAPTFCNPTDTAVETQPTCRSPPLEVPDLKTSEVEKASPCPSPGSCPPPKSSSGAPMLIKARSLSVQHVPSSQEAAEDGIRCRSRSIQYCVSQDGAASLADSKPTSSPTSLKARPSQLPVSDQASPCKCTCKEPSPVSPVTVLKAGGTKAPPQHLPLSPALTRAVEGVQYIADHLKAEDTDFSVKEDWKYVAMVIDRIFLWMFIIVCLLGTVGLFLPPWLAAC
Chain of Neuronal acetylcholine receptor subunit alpha-7 (Q05941 whole entry): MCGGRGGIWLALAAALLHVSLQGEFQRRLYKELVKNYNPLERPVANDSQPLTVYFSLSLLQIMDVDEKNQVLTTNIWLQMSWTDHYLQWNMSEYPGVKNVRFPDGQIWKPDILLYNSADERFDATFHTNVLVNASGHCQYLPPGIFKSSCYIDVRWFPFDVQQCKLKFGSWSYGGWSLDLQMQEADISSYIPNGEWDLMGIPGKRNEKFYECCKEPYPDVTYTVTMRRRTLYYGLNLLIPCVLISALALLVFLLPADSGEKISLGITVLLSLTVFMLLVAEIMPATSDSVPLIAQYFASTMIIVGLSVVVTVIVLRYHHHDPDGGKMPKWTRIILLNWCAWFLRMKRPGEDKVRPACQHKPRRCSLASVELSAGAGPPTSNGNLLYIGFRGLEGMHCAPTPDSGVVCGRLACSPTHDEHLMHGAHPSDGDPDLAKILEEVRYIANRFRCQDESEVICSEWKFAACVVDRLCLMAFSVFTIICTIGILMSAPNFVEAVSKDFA

Which results are given for `CCOc1cc(N2CCCNCC2)cnc1Br`?
pKi [1]: 9.60; pKi [2]: 6.07

What does the source list for `c1ccc(-c2cncc(N3CCCNCC3)c2)cc1`?
pKi [1]: 9.10; pKi [2]: < 5.00

`Clc1ccc([C@H]2C[C@@H]3CC[C@H]2N3)cn1` was tested. Which pKi [3] did it give?
Its pKi is 10.01.

How did the pKi [1] turn out when `CCOc1cncc(N2CCCNCC2)c1` [NS3573, 2] was run?
Its pKi is 9.21.

And the pKi [2]?
Its pKi is 5.00.

And the pKi [3]?
Its pKi is 8.66.

`O=c1cccc2n1CC1CNCC2C1` (stereo not given) [CAS_485-35-8] was tested. Which pKi [1] did it give?
The pKi was 9.02.

And the pKi [2]?
The pKi was 6.53.

And the pKi [3]?
The pKi was 8.09.

With `Brc1ccc(N2CCCNCC2)cn1` [NS3920, 4] as the compound, how does the pKi [1] read?
Its pKi is 9.49.

What about the pKi [2] of the same compound?
The pKi was 6.72.

What does the source list for `c1cncc(N2CCCNCC2)c1`?
pKi [1]: 9.14; pKi [2]: 6.87
